Measurements reported in PMC8269059, “Glycyrrhizin Derivatives Suppress Cancer Chemoresistance by Inhibiting Progesterone Receptor Membrane Component 1” (Cancers, 2021).

Tests used:
[1] = target: T1, HMGB1 (Homo sapiens, UniProt P09429); experiment: ITC binding to HMGB1; details: HMGB1 80 µM, compound 3 mM
T1 construct: human HMGB1 full-length cDNA was cloned from cDNA library of HCT116 cells; GST (N, cleaved yes); made in house; host or cells: E. coli BL21 (DE3)
Text: Bacterial expression vectors pGEX-PGRMC1 (human PGRMC1 intracellular domain residues 43-195) and mammalian FLAG-tagged expression vector pCMV-FLAG-PGRMC1 (full-length) were constructed as described previously. Expression vectors for PGRMC1 point mutants were generated by site-directed mutagenesis with PCR. For construction of HMGB1 expression vector, human HMGB1 full-length cDNA was cloned from cDNA library of HCT116 cells using the primers (Forward: 5′-[…]-3′, Reverse: 5′-[…]-[…]-3′), digested with Bam HI and Sal I, and then ligated into pGEX6P1.
Expression vectors (pGEX-PGRMC1 (residues 43-195) or pGEX-HMGB1) were transformed into BL21 (DE3) competent E. coli cells, and the cells incubated in LB medium with ampicillin at 37 °C until the OD600 reached 0.8. Protein expression was induced by adding 1 mM isopropyl-β-thiogalactopyranoside (IPTG) and incubating at 37 °C for 4 h. […]
ITC experiments were performed at 298 K with ITC-Buffer (50 mM phosphate [pH 7.0]) using a MicroCal iTC200 (Malvern Panalytical, Malvern, UK). […] Binding isotherms were analyzed using SEDPHAT [35]. The binding of AG205 to apo- or heme-PGRMC1 (100 μM) was analyzed using a concentration of 3 mM containing 1% DMSO. […]

[2] = target: T2, interaction between PGRMC1 and EGFR (Homo sapiens, UniProt O00264); experiment: Co-immunoprecipitation of PGRMC1 and EGFR in HuH7 cells; assay type: cell-based; details: HuH7, FLAG-PGRMC1 co-IP, 12 h treatment
T2 construct: mammalian FLAG-tagged expression vector pCMV-FLAG-PGRMC1 (full-length); expressed in transfected cells; host or cells: HCT116 or HuH7
T2 sequence (O00264 whole entry): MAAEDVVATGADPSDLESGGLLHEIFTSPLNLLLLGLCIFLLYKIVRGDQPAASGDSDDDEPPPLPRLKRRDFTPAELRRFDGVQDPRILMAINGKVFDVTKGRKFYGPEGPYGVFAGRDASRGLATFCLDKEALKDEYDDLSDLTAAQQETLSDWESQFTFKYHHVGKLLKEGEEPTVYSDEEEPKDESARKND
Method: (§1) An expression vector of pCMV-3xFLAG-PGRMC1 or an empty vector was transfected into HCT116 cells or HuH7 cells using the transfection reagent Lipofectamine 2000 (Invitrogen). The cells were incubated overnight with either GL or GlucoGL. Cells were then lysed with NP40 lysis buffer (20 mM Tris-HCl [pH 7.5], 150 mM NaCl, and 1% NP40). The lysates were incubated with 10 μL of equilibrated anti-FLAG (M2) agarose for 60 min at room temperature. Bound proteins were washed three times and subjected to SDS-PAGE and visualized through western blotting using antibodies against FLAG, EGFR, and LDLR. For analysis of the endogenous PGRMC1-binding with FLAG-PGRMC1, HCT116 cells (1 × 10^7 cells) were treated with vehicle or 250 μM SA and/or 10 μM hemin for 48 h, and the cell lysates were co-immunoprecipitated with anti-FLAG (M2) agarose. Bound proteins (endogenous PGRMC1 and FLAG-tagged PGRMC1) were visualized through western blotting using antibody against PGRMC1.

[3] = test system: EGFR signaling (phosphorylation of EGFR, AKT, ERK); experiment: EGF-induced EGFR signaling (western blot) in HCT116 cells; assay type: cell-based, human; details: for EGF-induced phosphorylation of EGFR, AKT and ERK: HCT116, EGF 100 ng/mL for 5 min
Text: […] Cells were lysed with RIPA buffer, and the lysates were subjected to SDS-PAGE and visualized through western blotting using antibodies against PGRMC1, EGFR, phospho-Y1068 EGFR, AKT, phospho-S473AKT, ERK, and phospho-T185 Y187 ERK.

[4] = test system: EGF signaling; experiment: EGF signaling (western blot) in HuH7 cells; assay type: cell-based, human; details: HuH7, EGF for 5 min
Method: For analysis of EGFR signaling, cells were incubated overnight with GL or GlucoGL, and then EGF (100 ng/mL) was added for 5 min. Cells were lysed with RIPA buffer, and the lysates were subjected to SDS-PAGE and visualized through western blotting using antibodies against PGRMC1, EGFR, phospho-Y1068 EGFR, AKT, phospho-S473AKT, ERK, and phospho-T185 Y187 ERK.

[5] = target: T3, EGFR kinase (Homo sapiens, UniProt P00533); experiment: EGFR kinase assay in vitro; assay type: biochemical; details: Kinase-Glo, erlotinib 100nM
T3 construct: purchased BPS Bioscience
T3 sequence (P00533 25-1210): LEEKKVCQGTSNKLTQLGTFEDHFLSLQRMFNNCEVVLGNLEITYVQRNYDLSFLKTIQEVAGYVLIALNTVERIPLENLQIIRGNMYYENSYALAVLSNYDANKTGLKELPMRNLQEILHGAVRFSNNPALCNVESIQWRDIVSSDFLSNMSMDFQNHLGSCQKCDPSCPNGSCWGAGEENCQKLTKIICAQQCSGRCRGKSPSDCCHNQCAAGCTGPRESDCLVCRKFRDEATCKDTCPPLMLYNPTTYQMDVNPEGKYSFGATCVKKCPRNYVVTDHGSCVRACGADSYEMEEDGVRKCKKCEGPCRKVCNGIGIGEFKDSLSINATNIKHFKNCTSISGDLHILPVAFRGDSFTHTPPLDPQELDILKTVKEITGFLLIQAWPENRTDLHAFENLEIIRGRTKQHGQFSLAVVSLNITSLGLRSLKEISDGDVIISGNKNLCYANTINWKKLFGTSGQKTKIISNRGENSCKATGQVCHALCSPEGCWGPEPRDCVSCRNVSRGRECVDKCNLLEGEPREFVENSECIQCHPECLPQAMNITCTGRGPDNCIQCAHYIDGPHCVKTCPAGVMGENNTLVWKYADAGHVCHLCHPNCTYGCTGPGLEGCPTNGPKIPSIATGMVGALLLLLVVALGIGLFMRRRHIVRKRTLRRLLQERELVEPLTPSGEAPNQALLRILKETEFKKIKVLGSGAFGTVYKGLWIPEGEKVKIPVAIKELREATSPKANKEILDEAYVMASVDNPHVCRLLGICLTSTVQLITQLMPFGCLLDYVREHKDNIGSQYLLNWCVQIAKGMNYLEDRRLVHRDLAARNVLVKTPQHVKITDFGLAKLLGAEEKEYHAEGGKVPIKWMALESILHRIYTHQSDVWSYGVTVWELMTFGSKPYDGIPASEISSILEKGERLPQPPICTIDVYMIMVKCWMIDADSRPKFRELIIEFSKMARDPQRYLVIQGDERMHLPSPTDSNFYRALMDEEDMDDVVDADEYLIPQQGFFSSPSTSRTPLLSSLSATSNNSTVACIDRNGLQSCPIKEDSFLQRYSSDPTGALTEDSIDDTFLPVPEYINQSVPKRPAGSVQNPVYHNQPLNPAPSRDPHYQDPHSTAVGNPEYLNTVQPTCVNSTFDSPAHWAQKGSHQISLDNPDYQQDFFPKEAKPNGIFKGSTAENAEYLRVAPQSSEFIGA
Method: The assay was performed using an EGFR kinase assay kit (BPS Bioscience, San Diego, CA, USA). EGFR kinase activity was analyzed by measuring the amount of ATP remaining following the kinase reaction based on luminescent intensity using Kinase-Glo MAX (Promega, Madison, WI, USA). A mixture of kinase buffer, ATP, and PTK substrate was incubated with EGFR (1 ng/µL) with or without GL or GlucoGL at 30 °C for 40 min. Kinase-Glo max was added to each well and incubated at room temperature for 15 min under light protection. Luminescent intensity was measured using a microplate reader.

[6] = test system: EGF uptake in HCT116 cells; experiment: Alexa Fluor 488 EGF uptake in HCT116 cells; assay type: cell-based, human; details: HCT116, microscopy and flow cytometry, 5 min, vs control cells
Method: (§2) For the analysis of EGF and LDL uptake, HCT116 cells were incubated with serum-free DMEM supplemented with Alexa Fluor 488 EGF complex or Alexa Fluor 488 acetylated LDL to a final concentration of 1 µg/L at 37 °C for 5 min. For immunofluorescence microscopy analyses, HCT116 cells treated with Alexa Fluor 488-labeled EGF or LDL were fixed with 4% paraformaldehyde for 20 min and incubated in 10 mg/L DAPI for 15 min. The cells were observed using a BZ-x800 fluorescence microscope (Keyence, IL, USA). For flow cytometry analysis, HCT116 cells treated with Alexa Fluor 488-labeled EGF or LDL were detached using trypsin/EDTA and suspended in PBS. The mean fluorescent intensity per 10,000 cells was analyzed using a flow cytometer (Gallios, Beckman Coulter Life Science, Pasadena, CA, USA). The data were analyzed using Kaluza 2.1 analysis software (Beckman Coulter Life Science).

[7] = target: T4, interaction between PGRMC1 and LDLR (Homo sapiens, UniProt O00264); experiment: Co-immunoprecipitation of PGRMC1 and LDLR in HCT116 cells; assay type: cell-based; details: HCT116, FLAG-PGRMC1 co-IP, 12 h treatment
T4 construct: mammalian FLAG-tagged expression vector pCMV-FLAG-PGRMC1 (full-length); expressed in transfected cells; host or cells: HCT116
T4 sequence (O00264 whole entry): as the sequence (O00264 whole entry) above
Method: as §1

[8] = test system: LDL uptake in HCT116 cells; experiment: Alexa Fluor 488-labelled LDL uptake in HCT116 cells; assay type: cell-based, human; details: HCT116, microscopy and flow cytometry, 5 min
Method: as §2

T1 sequence (P09429 whole entry): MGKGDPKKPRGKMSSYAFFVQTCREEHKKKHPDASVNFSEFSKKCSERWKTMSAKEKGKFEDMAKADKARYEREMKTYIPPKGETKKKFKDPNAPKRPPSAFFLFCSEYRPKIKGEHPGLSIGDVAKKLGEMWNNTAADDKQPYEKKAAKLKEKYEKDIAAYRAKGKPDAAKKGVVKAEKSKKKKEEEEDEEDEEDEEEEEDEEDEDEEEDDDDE

KD for HMGB1 [1] | Interaction between PGRMC1 and EGFR [2] | EGFR kinase activity [5] | Interaction between PGRMC1 and LDLR [7] | Kd [1] [µM] | Compound | EGF-induced phosphorylation of EGFR, AKT and ERK [3] | EGF signaling, time-course ([3]; HCT116, early phase of EGF stimulation (5 or 10 min)) | EGF signaling [4] | Uptake of labelled EGF [6] | Labelled-LDL uptake [8]
weak binding | inhibited the interaction | no inhibitory effect | inhibited this interaction more potently | – | CC1(C(=O)O)CCC2(C)CCC3(C)C(=CC(=O)C4C5(C)CCC(OC6OC(C(=O)O)C(O)C(O)C6OC6OC(CO)C(O)C(O)C6O)C(C)(C)C5CCC43C)C2C1 (centres unmarked) [Glucoglycyrrhizin (GlucoGL), Glucoglycyrrhizin] | significantly suppressed | remarkable inhibitory effect | suppressed the EGF signaling | significantly suppressed | significantly suppressed
– | inhibited the interaction | no inhibitory effect | inhibited | 223 | CC1(C)[C@@H](O[C@H]2O[C@H](C(=O)O)[C@@H](O)[C@H](O)[C@H]2O[C@@H]2O[C@H](C(=O)O)[C@@H](O)[C@H](O)[C@H]2O)CC[C@]2(C)[C@H]3C(=O)C=C4[C@@H]5C[C@@](C)(C(=O)O)CC[C@]5(C)CC[C@@]4(C)[C@]3(C)CC[C@@H]12 [Glycyrrhizin (GL), Glycyrrhizin] | significantly suppressed | – | suppressed the EGF signaling | significantly suppressed | significantly suppressed
